What was measured:
[1] = Body fat mass by DEXA in Swiss mice fed with a western diet; format: in vivo
Protocol: In our investigations, two kinds of diet were used: 1—a standard diet (A04 diet from UAR) containing 3% of lipids and bringing 2900 kcal per kg; 2—a western diet (from UAR too) containing 16% of lipids and bringing 4300 kcal per kg.
D,L-β-Aminoisobutyric acid (BAIBA) was purchased from Sigma-Aldrich. BAIBA has been administered in drinking water at the dose of 100 mg/kg/day or 500 mg/kg/day for 6 weeks, 2 months or 4 months according to the experiments.
The in vivo determination of body fat mass in anesthetized mice has been performed by “DEXA” (Dual Energy X-ray Absorptiometry) (Pietriobelli A., Formica C., Wang Z., Heymsfield S. B., 1996, Am. J. Physiol. 271 (Endocrinol. Metab. 34): E941-E951)). […] It is noteworthy that DEXA also gives for each investigated animal its lean mass that is the total amount of water and proteins (in grams) in the body (excluding the head). Therefore, for a given animal, DEXA allows the determination of the percentage of body fat which is its body fat mass divided by the sum of its body lean and fat masses (fat mass/(lean mass+fat mass)). The “DEXA” apparatus was a Piximus® from Lunar Corporation (Madison, Wis.). Mice were anesthetized thanks to a mixture of xylazine and ketamine. […]
In a third series of experiments, we sought to determine as to whether of 100 mg/kg/day of β-aminoisobutyric acid (BAIBA) would be able to decrease body fat mass in Swiss mice fed with a western diet (i.e. hypercaloric diet). For this purpose, young (4 weeks old at T0) Swiss mice were fed with a hypercaloric western diet (WD), with or without BAIBA in the drinking water (8 mice in each group). For comparison, the experiment included a group of mice (n=8) fed with a standard diet (SD). DEXA was performed one day before the beginning of the treatment (T0) and then two, four and six weeks after the initiation of the experience (T2, T4 and T6, respectively). This allowed us to determine for each animal the variation of body parameters (e.g. fat mass, body weight) for the different periods of the treatment (T0-T2, T2-T4, T4-T6 and T0-T6). For these four DEXA determinations (T0 to T6), mice were not fasted before measurements. In this experiment, BAIBA reduced the gain of body fat mass in Swiss mice fed with a western diet and this beneficial effect was observed from the fourth week of the BAIBA administration. This effect is illustrated in FIG. 3. […] Indeed, during the T0-T6 period control mice fed with the western diet (Controls-WD) gained 4.88±0.83 grams of body fat whereas mice fed with the same diet and receiving BAIBA (BAIBA-WD) gained 3.91±0.59 grams of body fat mass. For comparison, mice fed with the standard diet (Controls-SD) gained 3.18±0.34 grams of body fat during the entire period (T0-T6) of the experiment. • At the end of the treatment (T6), the body fat mass was 4.48±0.33, 6.21±0.85 and 5.25±0.60 grams, respectively for the Controls-SD, Controls-WD and BAIBA-WD groups of mice (15% decrease between Controls-WD and BAIBA-WD). The percentage of body fat ((fat mass)/(fat+lean mass)) was at this time 13.23±0.86, 17.96±2.04 et 15.76±1.53%, respectively in the Controls-SD, Controls-WD and BAIBA-WD groups.
Finally, we sought to determine on the very same animals as to whether fasting would be able to enhance the beneficial effect of BAIBA on body fat mass. Thus, after the fourth DEXA measurement (i.e. DEXA determination at T6), mice were allowed to recover from the anaesthesia for ca. 2 days and were then submitted to a 48-hour period of fast. A last DEXA measurement was then performed in fasted mice. […] Indeed, after the fasting period, body fat mass was 3.10±0.30, 5.40±0.75 et 4.79±0.56 grams, respectively in control mice fed the standard diet (Controls-SD), control mice fed with the western diet (Controls-WD), and mice fed with the western diet and receiving BAIBA (BAIBA-WD). […]

[2] = Plasma glucose, insulin and adiponectin in very young ob/ob mice (5-6 weeks old), 6 weeks; format: in vivo
Protocol: Plasma glucose was measured on an automatic analyser (Synchron LX20 from Beckman Coulter) with a commercial kit (kit n°472500 from Beckman).
Plasma insulin, adiponectin and leptin were measured by radioimmunoassay (RIA). Insulin was measured with the Insulin-CT kit from Cis Bio International (Gif-sur-Yvette, France), whereas plasma leptin and adiponectin were assessed with kits from Linco Research Inc. (St Charles, Mo.). Leptin was not measured in ob/ob mice since these animals are genetically leptin-deficient (Friedman J. M., Halaas J. L., 1998, Nature 395: 763-770). Results regarding insulin were expressed as recommended by kit manufacturer.
In another experiment, very young ob/ob mice (5-6 weeks old) were treated with 100 mg/kg/d of β-aminoisobutyric acid for 6 weeks and fasted for the last 48 hours. Although plasma glucose was not decreased in treated mice, there was a clear trend toward lower insulin and higher adiponectin. Indeed, plasma insulin was 56±9 and 37±5 μU/ml (p=0.08), respectively in control mice (n=7) and mice treated with β-aminoisobutyric acid (n=7). Plasma adiponectin was 8.0±1.1 and 10.9±1.2 μg/ml (p=0.08), respectively in control mice (n=7) and mice treated with β-aminoisobutyric acid (n=7).

[3] = 100 mg/kg/d 6 weeks, very young ob/ob, fasted 48 hours, p=0.08

For CC(CN)C(=O)O (racemic) [BAIBA, D,L-β-Aminoisobutyric acid], the “gain of body fat mass” value ([1]; 100 mg/kg/day, western diet, T0-T6) was 3.91±0.59 grams, the “reduction of the gain of body fat mass” value ([1]; 100 mg/kg/day, western diet, T0-T6, vs Controls-WD) was 20% and the body fat lost ([1]; 100 mg/kg/day, western diet, T4-T6 period) was 0.45±0.30 grams. For the same compound, the body weight ([1]; 100 mg/kg/day, western diet, after 6 weeks) was 37.0±0.76 grams, the “percentage of body fat ((fat mass)/(fat+lean mass))” value ([1]; 100 mg/kg/day, western diet, at T6) was 15.76±1.53% and the body fat mass ([1]; 100 mg/kg/day, western diet, at T6, fed) was 5.25±0.60 grams. The body fat mass ([1]; western diet 6 weeks, after 48-hour fasting period) was 4.79±0.56 grams, the “decrease of the percentage of body fat” value ([1]; western diet 6 weeks, fasted state) was 11% and the “decrease of the percentage of body fat” value ([1]; western diet 6 weeks, fed state) was 15%. For the same compound, the “decrease of body fat mass between Controls-WD and BAIBA-WD” value ([1]; western diet, at T6) was 15%, the body weight ([1]; western diet, at the end of the fasting period) was 33.6±0.9 grams and the “plasma glucose vs control” value ([2]; 100 mg/kg/d 6 weeks, very young ob/ob, fasted 48 hours) was “not decreased”. For the same compound, the plasma adiponectin [2, 3] was 10.9 ± 1.2 µg/mL, the plasma insulin [2, 3] was 37±5 μU/ml and the “increase of plasma level of adiponectin” value ([2]; obese mice) was “around 35%”.

Reference: patent US20060167098A1, “Method for the treatment of diseases linked to an accumulation of triglycerides and cholesterol” (Institut National De La Sante ET De LA Recherche Medicale …, priority 2003, published 2006)
